From US20130296311A1, “INHIBITORS OF HCV NS5A” (PRESIDIO PHARMACEUTICALS, INC., priority 2010, published 2013) come the findings set out here.

The first assay concerns HCV 1b_Huh-Luc/Neo-ET cell line persistently expressing a bicistronic genotype 1b replicon in Huh 7 cells. Nature of the assay: HCV replicon assay (luciferase readout, 72 h). The format is cell-based, HCV genotype 1b. To be noted: Hepatitis C virus, Huh-7, 72 h, read-out: Inhibition of HCV genotype 1b. In short, it runs like this: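 EC50 values come from a four-parameter fit of luciferase signal as % of untreated control, repeated across several determinations. The signal is from the HCV 1b_Huh-Luc/Neo-ET replicon line, dosed in triplicate one day post-plating and incubated 72 h before Bright-Glo readout.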
For `O=C(N[C@@H](C(=O)N1CCC[C@H]1c1ncc(-c2ccc(C#Cc3ccc(-c4cnc([C@@H]5CCCN5C(=O)[C@H](NC(=O)N5CC[C@H](O)C5)c5ccccc5)[nH]4)cc3)cc2)[nH]1)c1ccccc1)N1CC[C@H](O)C1` [Compound 245], the EC50 is less than 1 nM.

On to `O=C([C@@H](c1ccccc1)N1CCOCC1)N1CCC[C@H]1c1ncc(-c2ccc(C#Cc3ccc(-c4cnc([C@@H]5CCCN5C(=O)[C@@H](c5ccccc5)N5CCOCC5)[nH]4)cc3)cc2)[nH]1` [Compound 184], for which the EC50 is less than 1 nM.

As to `CC(C)(C)OC(=O)N[C@@H](C(=O)N1CCC[C@H]1c1ncc(-c2ccc(C#Cc3ccc4nc([C@@H]5CCCN5C(=O)[C@H](NC(=O)OC(C)(C)C)c5ccccc5)[nH]c4c3)cc2)[nH]1)c1ccccc1` [Compound 801], the EC50 was less than 1 nM.

Take `COC(=O)N[C@@H](C(=O)N1CCC[C@H]1c1ncc(-c2ccc(C#Cc3ccc(-c4cnc([C@@H]5CCCN5C(=O)[C@H](NC(=O)[C@H]5CCCN5)c5ccccc5)[nH]4)cc3)cc2)[nH]1)c1ccccc1` [Compound 207]: the EC50 was less than 1 nM.

In the case of `COC(=O)N[C@@H](C(=O)N1CCC[C@H]1c1ncc(C#Cc2ccc(-c3ccc(-c4cnc([C@@H]5CCCN5C(=O)[C@@H](c5ccccc5)N5CCCCC5)[nH]4)cc3)cc2)[nH]1)c1ccccc1` [Compound 752], the EC50 is less than 1 nM.

In the case of `COC(=O)N[C@H](C(=O)N1CCC[C@H]1c1nc2ccc(C#Cc3ccc(-c4cnc([C@@H]5CCCN5)[nH]4)cc3)cc2[nH]1)C(C)C` [Compound 1055], the EC50 was 10 to 999 nM.

As for `COC(=O)N[C@@H](C(=O)N1CCC[C@H]1c1ncc(-c2ccc(C#Cc3ccc(-c4cnc([C@@H]5CCCN5C(=O)C5(c6ccccc6)CC5)[nH]4)cc3)cc2)[nH]1)c1ccccc1` [Compound 257], the EC50 is less than 1 nM.

In the case of `COC(=O)N[C@@H](C(=O)N1CCC[C@H]1c1ncc(-c2ccc(C#Cc3ccc(-c4cnc([C@@H]5CCCN5C(=O)[C@H](NC(=O)OC)c5ccccc5)[nH]4)c(F)c3)cc2)[nH]1)c1ccccc1` [Compound 1013], the EC50 was less than 1 nM.

With `O=C(N[C@@H](C(=O)N1CCC[C@H]1c1ncc(C#Cc2ccc(C#Cc3cnc([C@@H]4CCCN4C(=O)[C@H](NC(=O)C4CC4)c4ccccc4)[nH]3)cc2)[nH]1)c1ccccc1)C1CC1` [Compound 303], the EC50 was less than 1 nM.

Take `CC(C)(C)OC(=O)NC(C)(C)C(=O)N1CCC[C@H]1c1ncc(C#Cc2ccc(-c3cnc([C@@H]4CCCN4C(=O)C(C)(C)NC(=O)OC(C)(C)C)[nH]3)cc2)[nH]1` [Compound 106]: the EC50 is greater than 1000 nM.

`COC(=O)N[C@@H](C(=O)N1CCC[C@H]1c1ncc(-c2ccc(C#Cc3ccc(-c4cnc([C@@H]5CCCN5C(=O)[C@H](NC(=O)[C@@H]5CCCN5)c5ccccc5)[nH]4)cc3)cc2)[nH]1)c1ccccc1` [Compound 206]: the EC50 is less than 1 nM.

With `COC(=O)N[C@H](C(=O)N1CCC[C@H]1c1ncc(-c2ccc(C#Cc3ccc4nc([C@@H]5CCCN5C(=O)[C@H](NC(=O)OC)c5ccccc5)[nH]c4c3)cc2)[nH]1)C(C)C` [Compound 1023], the EC50 was less than 1 nM.

As for `O=C(N[C@@H](C(=O)N1CCC[C@H]1c1cc(-c2ccc(C#Cc3ccc(-c4cnc([C@@H]5CCCN5C(=O)[C@H](NC(=O)[C@@H]5CCCO5)c5ccccc5)[nH]4)cc3)cc2)n[nH]1)c1ccccc1)[C@@H]1CCCO1` [Compound 214], the EC50 is less than 1 nM.

On to `COC(=O)NC(C)(C)C(=O)N1CCC[C@H]1c1ncc(-c2ccc(C#Cc3ccc4nc([C@@H]5CCCN5C(=O)C(C)(C)NC(=O)OC)[nH]c4c3)cc2)[nH]1` [Compound 1050], for which the EC50 was 10 to 999 nM.

The assay is the same for the next values; noted with them: Hepatitis C virus, Huh-7, read-out: Inhibition of HCV genotype 1b.
On to `CC[C@H](C)[C@H](NC(=O)OC)C(=O)N1CCC[C@H]1c1ncc(-c2ccc(C#Cc3ccc(-c4cnc([C@@H]5CCCN5C(=O)[C@@H](NC(=O)OC)[C@@H](C)CC)[nH]4)cc3)cc2)[nH]1` [Compound 1216], for which the EC50 is less than 1 nM.

For the compound `C#CC[C@H](NC(=O)OC)C(=O)N1CCC[C@H]1c1nc2ccc(C#Cc3ccc4c(c3)CCCc3nc([C@@H]5CCCN5C(=O)[C@@H](NC(=O)OC)C(C)C)[nH]c3-4)cc2[nH]1` [Compound 1284], the EC50 was less than 1 nM.
